Assay results reported in article PMC2914301 (Cancer research, 2009).
pKd, pKi: −log10 of the molar value. “Also recorded” adds a separate entry of the source.

Legend:
PH domain of PDK1 [1] = molecular target: T1, PH domain of PDK1 (Homo sapiens, UniProt O15530); assay: SPR competitive binding
T1 sequence (O15530 459-550 limits assumed): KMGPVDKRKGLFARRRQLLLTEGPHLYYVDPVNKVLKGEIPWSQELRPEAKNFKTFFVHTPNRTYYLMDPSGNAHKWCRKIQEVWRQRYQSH

phospho-Ser^241-PDK1 = assay: Western analysis of phospho-Ser241-PDK1 in BxPC-3 cells; format: cell-based, Human; details: at higher concentrations
PH domain of PDK1 [2] = molecular target: T1, PH domain of PDK1; assay: SPR direct binding to PDK1 PH domain
MiaPaCa-2 = assay: Morphologic apoptosis assay in MiaPaCa-2 cells; format: cell-based, Human
Panc-1 = assay: Morphologic apoptosis assay in Panc-1 cells; format: cell-based, Human
GSK3β and p70S6K = assay: Western analysis of AKT downstream targets in BxPC-3 cells; format: cell-based, Human; details: Western blot
[3] = Preliminary single-dose toxicity, i.p.; format: in vivo; details: single doses up to 250 mg/kg i.p.; preliminary studies
[4] = tested on: BxPC-3 pancreatic cancer xenografts; assay: Antitumor activity against BxPC-3 xenografts in scid mice; format: in vivo; details: 125 mg/kg i.p. twice a day for 5 days

SMILES: CCCCCCCCCCCCc1ccc(S(=O)(=O)Nc2nncs2)cc1 [Compound 27, 4-dodecyl-N-(1,3,4-thiadiazol-2-yl) benzenesulfonamide]
- pKi (PH domain of PDK1 [1]): 5.26
- Effect on phosphorylation of PDK1 on Ser241 (in words) (phospho-Ser^241-PDK1): slightly affected
- pKd (PH domain of PDK1 [2]): 4.05
- Apoptosis at 20 μmol/L (MiaPaCa-2): 31.3 ± 1.6%
- Apoptosis at 20 μmol/L (Panc-1): 40.0 ± 2.9%
- Effect on GSK3β and p70S6K phosphorylation (in words) (GSK3β and p70S6K): inhibited in a dose-dependent manner
- Toxicity of single doses [3]: no toxicity
- Antitumor activity [4]: significant antitumor activity with cessation of tumor growth and even regression; also recorded: complete cessation of tumor growth and even some regression
